The values that follow are results of earlier work, collected in patent US7691599B2, “Mammalian genes involved in viral infection and tumor suppression” (Zirus, Inc., priority 2002, dated 2010).

Read-outs that look alike come from different tables or passages of the source.

A word on the t½: it is the time needed for the level to fall by half in the phase considered. As a reminder, the Cmax is the highest concentration seen after dosing.

The conditions of data set [1]: for plasma concentration at 3 h: 3 h after single oral dose of 300 mg V11294A; for AUC(0, infinity) / t½ / Cmax: plasma; for AUC(0, infinity) / t½: single oral dose of 300 mg V11294A; for Cmax: single oral fasting dose of 300 mg V11294A, mean +/− s.d.
Data set [2] deals with mononuclear cell proliferation. The conditions noted are these: whole blood, 3 h (P<<0.05).
The test system of data set [3] is tumour necrosis factor (TNF) release in whole blood.
Data set [4] addresses T1, I747T mutant NR3C1 (glucocorticoid receptor) (Homo sapiens, UniProt P04150, I747T).
T1 sequence (P04150 1-777 I747T): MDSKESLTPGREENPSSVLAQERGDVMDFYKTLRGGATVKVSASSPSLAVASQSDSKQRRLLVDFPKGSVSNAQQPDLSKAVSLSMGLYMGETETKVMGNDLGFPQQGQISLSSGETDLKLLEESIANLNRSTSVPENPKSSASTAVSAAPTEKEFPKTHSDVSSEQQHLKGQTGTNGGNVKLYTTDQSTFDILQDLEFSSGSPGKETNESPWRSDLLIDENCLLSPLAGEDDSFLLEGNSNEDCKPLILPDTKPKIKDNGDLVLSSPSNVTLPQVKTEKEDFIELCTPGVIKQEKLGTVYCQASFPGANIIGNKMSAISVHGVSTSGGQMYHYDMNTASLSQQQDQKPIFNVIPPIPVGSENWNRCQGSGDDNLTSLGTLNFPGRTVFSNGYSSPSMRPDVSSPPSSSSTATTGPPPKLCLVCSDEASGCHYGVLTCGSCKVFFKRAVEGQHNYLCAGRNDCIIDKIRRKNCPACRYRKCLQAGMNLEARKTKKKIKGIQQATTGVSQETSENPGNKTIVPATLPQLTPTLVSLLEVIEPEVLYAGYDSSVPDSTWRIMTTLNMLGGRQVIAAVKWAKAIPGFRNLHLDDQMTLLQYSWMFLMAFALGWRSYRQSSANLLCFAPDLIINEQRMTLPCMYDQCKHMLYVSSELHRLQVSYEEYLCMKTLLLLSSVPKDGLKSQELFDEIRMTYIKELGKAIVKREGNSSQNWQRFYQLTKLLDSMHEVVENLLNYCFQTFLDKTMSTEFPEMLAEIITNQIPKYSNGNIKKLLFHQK

The target of another data set is T2, monoamine oxidase type A (Mus musculus, UniProt Q64133).
T2 construct: from tissue; host or cells: whole animal: transgenic mice expressing antisense RNA against glucocorticoid receptor mRNA
T2 sequence (Q64133 1-526): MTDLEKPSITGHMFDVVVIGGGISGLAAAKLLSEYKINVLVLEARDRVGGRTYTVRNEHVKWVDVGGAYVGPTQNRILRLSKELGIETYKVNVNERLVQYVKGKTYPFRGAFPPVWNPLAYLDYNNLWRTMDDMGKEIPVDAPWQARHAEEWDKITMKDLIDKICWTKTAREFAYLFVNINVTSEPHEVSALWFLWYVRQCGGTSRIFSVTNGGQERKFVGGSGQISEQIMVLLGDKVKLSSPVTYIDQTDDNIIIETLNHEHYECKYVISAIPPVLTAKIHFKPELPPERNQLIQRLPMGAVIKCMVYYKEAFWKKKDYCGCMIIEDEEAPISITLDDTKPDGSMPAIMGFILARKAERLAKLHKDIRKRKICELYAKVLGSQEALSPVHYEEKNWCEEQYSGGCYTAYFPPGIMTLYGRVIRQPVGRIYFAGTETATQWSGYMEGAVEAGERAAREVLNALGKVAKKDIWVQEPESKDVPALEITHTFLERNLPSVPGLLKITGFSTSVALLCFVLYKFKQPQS
As to conditions: transgenic mice with reduced glucocorticoid receptor function.

Another data set deals with T3, ADAM 10 (Bos taurus, UniProt Q10741).
T3 construct: purified a protease with characteristics of TNFalpha convertase from bovine spleen membranes; from tissue; host or cells: bovine spleen membranes
T3 sequence (Q10741 214-748): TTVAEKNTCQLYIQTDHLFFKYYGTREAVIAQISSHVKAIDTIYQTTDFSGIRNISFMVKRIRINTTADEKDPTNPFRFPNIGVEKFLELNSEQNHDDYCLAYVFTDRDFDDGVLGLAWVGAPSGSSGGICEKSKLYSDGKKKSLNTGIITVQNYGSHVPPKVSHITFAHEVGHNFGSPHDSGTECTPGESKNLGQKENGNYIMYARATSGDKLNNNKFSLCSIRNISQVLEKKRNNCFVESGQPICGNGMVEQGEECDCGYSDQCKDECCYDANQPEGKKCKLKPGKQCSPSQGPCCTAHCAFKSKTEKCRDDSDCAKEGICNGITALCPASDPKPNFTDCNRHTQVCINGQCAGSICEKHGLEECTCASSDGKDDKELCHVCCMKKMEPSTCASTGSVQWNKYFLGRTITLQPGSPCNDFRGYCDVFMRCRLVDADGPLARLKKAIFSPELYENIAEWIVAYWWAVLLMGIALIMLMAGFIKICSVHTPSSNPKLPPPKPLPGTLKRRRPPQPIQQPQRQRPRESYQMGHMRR
As to conditions: ADAM 10 purified from bovine spleen membranes.

On to `COc1ccc(Cn2cnc(N)c3nc(C(C)C)nc2-3)cc1OC1CCCC1` [V10332, 3-(3-cyclopentyloxy-4-methoxy-benzyl)-8-isopropyl-3H-purin-6-ylamine], for which, in data set [1], the “plasma concentration at 3 h” value is 860 ± 300 ng/mL; the “AUC(0, infinity)” value was 18600 ± 8500 ng·h/mL; the t½ is 9.5 ± 1.7 h. In data set [1] (healthy volunteers), the Cmax was 1000 ± 400 ng/mL.
Regarding `CCNc1ncn(Cc2ccc(OC)c(OC3CCCC3)c2)c2nc(C(C)C)nc1-2.Cl` [V11294A, 3-(3-cyclopentyloxy-4-methoxybenzyl)-6-ethylamino-8-isopropyl-3H purine hydrochloride], the PHA-induced proliferation entry in data set [2] is given as “inhibited”. Moreover, the “LPS-induced TNF release” value in data set [3] (3 h post ingestion (P<<0.001)) is recorded as “significant reduction”. Further, the “LPS-induced TNF release” value in data set [3] (24 h post ingestion (P<<0.05)) is recorded as “significant reduction”. For the same compound, the “amount of TNF released in response to LPS” value in data set [3] (LPS 4 ng ml−1, whole blood, 3 h postdose (before 778+/−87, P=0.02)) is 566 ± 72 pmol/mL. Moreover, in data set [1], the “plasma concentration at 3 h” value was 1300 ± 330 ng/mL; the “AUC(0, infinity)” value is 18100 ± 6100 ng·h/mL; the t½ was 9.7 ± 3.9 h. Moreover, in data set [1] (healthy volunteers), the Cmax was 1398 ± 298 ng/mL. Besides, the adverse reactions result in data set [1] (single oral administration, 300 mg, healthy volunteers) is reported as “No adverse reactions were noted”.
For the compound `C[C@]12C[C@H](O)[C@H]3[C@@H](CCC4=CC(=O)CC[C@@]43C)[C@@H]1CC[C@@H]2C(=O)CO` [corticosterone], the “transactivation by I747T mutant NR3C1” value in data set [4] is “completely inactive”.
For `C[C@]12CCC(=O)C=C1CC[C@@H]1[C@@H]2[C@@H](O)C[C@@]2(C)[C@H]1CC[C@]2(O)C(=O)CO` [cortisol], in data set [4], the “transactivation by I747T mutant NR3C1” value is “completely inactive”.
Consider `O=C(NCCN1CCOCC1)c1ccc(Cl)cc1` [moclobemide], for which, at monoamine oxidase type A, the behavioral deficits entry was “reversed the behavioral deficits”.
On to `CC(C)C[C@H](NP(=O)(O)O[C@@H]1O[C@@H](C)[C@H](O)[C@@H](O)[C@H]1O)C(=O)N[C@@H](Cc1c[nH]c2ccccc12)C(=O)O` [phosphoramidon], for which the “sensitivity of the enzyme to inhibitor” value on ADAM 10 is on record as “insensitive”.
